The source of these data is US20080300231A1, “Antibacterial amide macrocycles VI” (priority 2005, published 2008).

Bounds are passed on as bounds.

Assay [1] has as its system S. aureus RN4220Bi^R. As to the kind of experiment: MIC against biphenomycin-resistant S. aureus strain RN4220Bi^R. The assay is classed as cell-based. The following applies: colony selected as strain RN4220Bi^R. Here is the method: The S. aureus strain RN4220Bi^R is isolated in vitro. […] Whereas about 1×10^7 cells grow on the antibiotic-free plate, about 100 colonies grow on the antibiotic-containing plate, corresponding to a resistance rate of 1×10^5. Some of the colonies grown on the antibiotic-containing plate are tested for the biphenomycin B MIC. One colony with a MIC of >50 μM is selected for further use, and the strain is referred to as RN4220Bi^R.

Assay [2] addresses S. aureus 133 Translation. As to the kind of experiment: S. aureus in vitro transcription-translation assay (firefly luciferase, S30 extract). The assay is classed as biochemical. The following applies: 50% inhibition of the translation of firefly luciferase. The source says: In Vitro Transcription-Translation with S. aureus Extracts
Construction of an S. aureus luciferase Reporter Plasmid
In order to construct a reporter plasmid which can be used in an in vitro transcription-translation assay from S. aureus the plasmid pBESTluc (Promega Corporation, USA) is used. The E. coli tac promoter present in this plasmid in front of the firefly luciferase is replaced with the capA1 promoter with appropriate Shine-Dalgarno sequence from S. aureus. The primers CAPFor 5′-CGGCCAAGCTTACTC-[…] […]-3′ and CAPRev 5′-[…]-3′ are used for this. The primer CAPFor contains the capA1 promoter, the ribosome binding site and the 5′ region of the luciferase gene. After PCR using pBESTluc as template it is possible to isolate a PCR product which contains the firefly luciferase gene with the fused capA1 promoter. This is, after restriction with ClaI and HindIII, ligated into the vector pBESTluc which has likewise been digested with ClaI and HindIII. The resulting plasmid p1a can be replicated in E. coli and can be used as template in the S. aureus in vitro transcription-translation test.
Preparation of S30 Extracts from S. aureus
Six litres of BHI medium are inoculated with a 250 ml overnight culture of an S. aureus strain and allowed to grow at 37° C. until the OD600 nm is 2-4. The cells are harvested by centrifugation and washed in 500 ml of cold buffer A (10 mM Tris acetate, pH 8.0, 14 mM magnesium acetate, 1 mM DTT, 1 M KCl). After renewed centrifugation, the cells are washed in 250 ml of cold buffer A with 50 mM KCl, and the resulting pellets are frozen at −20° C. for 60 min. The pellets are thawed on ice in 30 to 60 min and taken up to a total volume of 99 ml in buffer B (10 mM Tris acetate, pH 8.0, 20 mM magnesium acetate, 1 mM DTT, 50 mM KCl). 1.5 ml portions of lysostaphin (0.8 mg/ml) in buffer B are introduced into 3 precooled centrifuge cups and mixed with 33 ml of the cell suspension each. The samples are incubated at 37° C., shaking occasionally, for 45 to 60 min, before 150 μl of a 0.5 M DTT solution are added. The lysed cells are centrifuged at 30 000×g and 4° C. for 30 min. The cell pellet is taken up in buffer B and then centrifuged again under the same conditions, and the collected supernatants are combined. The supernatants are centrifuged again under the same conditions, and 0.25 volumes of buffer C (670 mM Tris acetate, pH 8.0, 20 mM magnesium acetate, 7 mM Na3 phosphoenolpyruvate, 7 mM DTT, 5.5 mM ATP, 70 μM amino acids (complete from Promega), 75 μg of pyruvate kinase (Sigma, Germany))/ml are added to the upper ⅔ of the supernatant. The samples are incubated at 37° C. for 30 min. The supernatants are dialysed against 2 l of dialysis buffer (10 mM Tris acetate, pH 8.0, 14 mM magnesium acetate, 1 mM DTT, 60 mM potassium acetate) in a dialysis tube with a 3500 Da cut-off with one buffer change at 4° C. overnight. The dialysate is concentrated to a protein concentration of about 10 mg/ml by covering the dialysis tube with cold PEG 8000 powder (Sigma, Germany) at 4° C. The S30 extracts can be stored in aliquots at −70° C.
Determination of the IC50 in the S. aureus In Vitro Transcription-Translation Assay
The inhibition of protein biosynthesis of the compounds can be shown in an in vitro transcription-translation assay. The assay is based on the cell-free transcription and translation of firefly luciferase using the reporter plasmid p1a as template and cell-free S30 extracts obtained from S. aureus. The activity of the resulting luciferase can be detected by luminescence measurement.
The amount of S30 extract or plasmid p1a to be employed must be tested anew for each preparation in order to ensure an optimal concentration in the assay. 3 μl of the substance to be tested, dissolved in 5% DMSO, are provided in an MTP. Then […] of a suitably concentrated plasmid solution p1a are added. […]

Take `NC[C@H](O)C[C@@H]1NC(=O)[C@@H](N)Cc2cc(ccc2O)-c2ccc(O)c(c2)C[C@@H](C(=O)O)NC1=O` [Biphenomycin B, biphenomycin B, reference compound]: the MIC (as a rule, the lowest concentration found to suppress growth) in assay [1] was more than 50 µM. In assay [2], the IC50 (as a rule, the midpoint of a concentration-inhibition curve) was 1500 nM.
